Reference: patent US6335330B1, “Crystalline pharmaceutical product” (SmithKline Beecham Corporation, priority 1996, dated 2002)
Where a name gives a salt, the structure may show the parent alone. Read-outs that look alike come from different tables or passages of the source.

Assays:
Assay type in all cases: physicochemical
Solubility in water = test: Solubility in water
[1] = Hygroscopicity / water content (Karl Fischer analysis)
From the text: The present invention provides (S)-7-[(4,4′-bipiperidin- 1-yl)carbonyl]-2,3,4,5-tetrahydro-4-methyl-3-oxo-1H-1,4-benzodiazepine-2-acetic acid, hydrochloride, formula (I), as a novel material, and, in particular, as a pharmaceutically acceptable form. The material crystallizes preferably with one mole of HCl, and appears to exist in a generally anhydrous form. Although small amounts of water may be detected by Karl Fischer analysis, this is generally less than 1-2% w/w of the drug substance, and it appears to be consistent irrespective of the storage conditions. […] Accordingly, the hydrochloride salt form offers significant advantages for bulk material consistency, handling, and formulation.

[2] = Thermal stability of solid samples (3 days at 100° C., hplc); settings: for increase in organic impurities: hplc, by area
[3] = Thermal stability over an extended period (shelf life); settings: impairs shelf life

SMILES: CN1Cc2cc(C(=O)N3CCC(C4CCNCC4)CC3)ccc2N[C@@H](CC(=O)O)C1=O [HCl Salt, (S)-7-[(4,4′-bipiperidin-1-yl)carbonyl]-2,3,4,5-tetrahydro-4-methyl-3-oxo-1H-1,4-benzodiazepine-2-acetic acid, hydrochloride]
- dissolution and solubility in water (in words) (Solubility in water): enhanced dissolution and solubility in water
- solubility in water relative to the zwitterion (Solubility in water): about ten
- water detected by Karl Fischer analysis ([1]; consistent irrespective of the storage conditions): 1-2 % w/w
- Hygroscopicity (% w/w Karl Fischer analysis) ([1]; t = 0, hydrochloride): 0.9 % w/w
- Hygroscopicity (% w/w Karl Fischer analysis) ([1]; t = 21 days, hydrochloride): 0.8 % w/w
- increase in organic impurities ([2]; hydrochloride): no increase
- Thermal Stability ([2]; hydrochloride): Stable

SMILES: CN1Cc2cc(C(=O)N3CCC(C4CCNCC4)CC3)ccc2N[C@@H](CC(=O)O)C1=O [trifluoroacetate salt]
- thermal stability for an extended period [3]: not thermally stable for an extended period

SMILES: CN1Cc2cc(C(=O)N3CCC(C4CCNCC4)CC3)ccc2N[C@@H](CC(=O)O)C1=O [Zwitterion, (S)-7-[(4,4′-bipiperidin-1-yl)carbonyl]-2,3,4,5-tetrahydro-4-methyl-3-oxo-1H-1,4-benzodiazepine-2-acetic acid]
- water taken up on equilibration ([1]; equilibrating species): about six
- hygroscopicity (in words) ([1]; material prepared according to WO 95/18619): hygroscopic
- Hygroscopicity (% w/w Karl Fischer analysis) ([1]; t = 0): 5.6 % w/w
- Hygroscopicity (% w/w Karl Fischer analysis) ([1]; t = 21 days): 20.1 % w/w
- Thermal Stability [2]: some degradation,
- increase in organic impurities [2]: impurities by 1.3% (hplc,
